We go through 17 molecules from US9125913B2, “Bcl-2-selective apoptosis-inducing agents for the treatment of cancer and immune diseases” (AbbVie Inc., priority 2008, dated 2015).

Some results are limits rather than exact numbers.

The experiment concerns GST-Bcl-2. Kind of experiment: TR-FRET binding assay, Bcl-2. The following applies: TR-FRET Ki values. As to the method: Tb-anti-GST antibody was purchased from Invitrogen (Catalog No. PV4216).
Representative compounds were serially diluted in dimethyl sulfoxide (DMSO) starting at 50 μM (2× starting concentration; 10% DMSO) and 10 μL were transferred into a 384-well plate.
The samples were then mixed on a shaker for 1 minute and incubated for an additional 3 hours at room temperature. For each assay, the probe/antibody and protein/probe/antibody were included on each assay plate as negative and positive controls, respectively. Fluorescence was measured on the Envision (Perkin Elmer) using a 340/35 nm excitation filter and 520/525 (F-Bak peptide) and 495/510 nm (Tb-labeled anti-Histidine antibody) emission filters.
The inhibition constant (Ki) is the dissociation constant of an enzyme-inhibitor complex or a protein/small molecule complex, wherein the small molecule is inhibiting binding of one protein to another protein or peptide. […] Inhibition constants were determined using Wang's equation (Wang Z-X., An Exact Mathematical Expression For Describing Competitive Binding Of Two Different Ligands To A Protein Molecule. FEBS Lett. 1995, 360:111-4).
(Time-resolved FRET reads energy transfer from a long-lived donor to a nearby acceptor.)
Turning to “4-(4-{[2-(4-chlorophenyl)-4,4-dimethylcyclohex-1-en-1-yl]methyl}piperazin-1-yl)-N-{[4-({[Cis-4-hydroxy-1-adamantyl]methyl}amino)-3-nitrophenyl]sulfonyl}-2-(1H-indol-5-yloxy)benzamide [EXAMPLE 322]”, the “Binding selectivity ratio (Bcl-XL Ki/Bcl-2 Ki)” value (from here on “Binding selectivity ratio”) is more than 3591.4.

Regarding `CC1(C)CC(c2ccc(Cl)cc2)=C(CN2CCN(c3ccc(C(=O)NS(=O)(=O)c4ccc(NCC5CCOCC5)c([N+](=O)[O-])c4)c(Oc4ccc5[nH]ccc5c4)c3)CC2)CO1` [EXAMPLE 182, 4-(4-{[4-(4-chlorophenyl)-6,6-dimethyl-5,6-dihydro-2H-pyran-3-yl]methyl}piperazin-1-yl)-2-(1H-indol-5-yloxy)-N-({3-nitro-4-[(tetrahydro-2H-pyran-4-ylmethyl)amino]phenyl}sulfonyl)benzamide], the “Binding selectivity ratio” value was more than 7595.8.

Consider `CN1CCC(O)(CNc2ccc(S(=O)(=O)NC(=O)c3ccc(N4CCN(CC5=C(c6ccc(Cl)cc6)CC(C)(C)CC5)CC4)cc3Oc3ccc4[nH]ccc4c3)cc2[N+](=O)[O-])CC1` [EXAMPLE 183, 4-(4-{[2-(4-chlorophenyl)-4,4-dimethylcyclohex-1-en-1-yl]methyl}piperazin-1-yl)-N-[(4-{[(4-hydroxy-1-methylpiperidin-4-yl)methyl]amino}-3-nitrophenyl)sulfonyl]-2-(1H-indol-5-yloxy)benzamide], for which the “Binding selectivity ratio” value stood at 240.5.

As for `CN1CCC(Nc2ccc(S(=O)(=O)NC(=O)c3ccc(N4CCN(CC5=C(c6ccc(Cl)cc6)CC(C)(C)CC5)CC4)c(F)c3Oc3ccc4[nH]ccc4c3)cc2[N+](=O)[O-])CC1` [EXAMPLE 184, 4-(4-{[2-(4-chlorophenyl)-4,4-dimethylcyclohex-1-en-1-yl]methyl}piperazin-1-yl)-3-fluoro-2-(1H-indol-5-yloxy)-N-({4-[(1-methylpiperidin-4-yl)amino]-3-nitrophenyl}sulfonyl)benzamide], the “Binding selectivity ratio” value is on record as more than 2345.3.

As for `CC1(C)CCC(CN2CCN(c3ccc(C(=O)NS(=O)(=O)c4ccc(NC5CCN(C6CCOCC6)CC5)c([N+](=O)[O-])c4)c(Oc4ccc5[nH]ccc5c4)c3F)CC2)=C(c2ccc(Cl)cc2)C1` [EXAMPLE 185, 4-(4-{[2-(4-chlorophenyl)-4,4-dimethylcyclohex-1-en-1-yl]methyl}piperazin-1-yl)-3-fluoro-2-(1H-indol-5-yloxy)-N-({3-nitro-4-[(1-tetrahydro-2H-pyran-4-ylpiperidin-4-yl)amino]phenyl}sulfonyl)benzamide], the “Binding selectivity ratio” value was 361.5.

With `CN1CCC(O)(CNc2ccc(S(=O)(=O)NC(=O)c3ccc(N4CCN(CC5=C(c6ccc(Cl)cc6)CC(C)(C)CC5)CC4)cc3Oc3cccc4[nH]ccc34)cc2[N+](=O)[O-])CC1` [EXAMPLE 186, 4-(4-{[2-(4-chlorophenyl)-4,4-dimethylcyclohex-1-en-1-yl]methyl}piperazin-1-yl)-N-[(4-{[(4-hydroxy-1-methylpiperidin-4-yl)methyl]amino}-3-nitrophenyl)sulfonyl]-2-(1H-indol-4-yloxy)benzamide], the “Binding selectivity ratio” value stood at 1069.2.

For `CC1(C)CCC(CN2CCN(c3ccc(C(=O)NS(=O)(=O)c4ccc(N[C@@H]5CCN(Cc6ccccc6)C[C@@H]5O)c([N+](=O)[O-])c4)c(Oc4ccc5[nH]ccc5c4)c3)CC2)=C(c2ccc(Cl)cc2)C1` [EXAMPLE 187, N-[(4-{[(3S,4R)-1-benzyl-3-hydroxypiperidin-4-yl]amino}-3-nitrophenyl)sulfonyl]-4-(4-{[2-(4-chlorophenyl)-4,4-dimethylcyclohex-1-en-1-yl]methyl}piperazin-1-yl)-2-(1H-indol-5-yloxy)benzamide], the “Binding selectivity ratio” value is reported as more than 2003.9.

Turning to `CC1(C)CCC(CN2CCN(c3ccc(C(=O)NS(=O)(=O)c4ccc(NCC5(N)CCOCC5)c([N+](=O)[O-])c4)c(Oc4ccc5[nH]ccc5c4)c3)CC2)=C(c2ccc(Cl)cc2)C1` [EXAMPLE 188, N-[(4-{[(4-aminotetrahydro-2H-pyran-4-yl)methyl]amino}-3-nitrophenyl)sulfonyl]-4-(4-{[2-(4-chlorophenyl)-4,4-dimethylcyclohex-1-en-1-yl]methyl}piperazin-1-yl)-2-(1H-indol-5-yloxy)benzamide], the “Binding selectivity ratio” value stood at 1135.4.

On to `COCCN1CCC(Nc2ccc(S(=O)(=O)NC(=O)c3ccc(N4CCN(CC5=C(c6ccc(Cl)cc6)CC(C)(C)CC5)CC4)cc3Oc3ccc4[nH]ccc4c3)cc2[N+](=O)[O-])CC1` [EXAMPLE 189, 4-(4-{[2-(4-chlorophenyl)-4,4-dimethylcyclohex-1-en-1-yl]methyl}piperazin-1-yl)-2-(1H-indol-5-yloxy)-N-[(4-{[1-(2-methoxyethyl)piperidin-4-yl]amino}-3-nitrophenyl)sulfonyl]benzamide], for which the “Binding selectivity ratio” value is reported as 358.6.

For the molecule `CN1CCN(Nc2ccc(S(=O)(=O)NC(=O)c3ccc(N4CCN(CC5=C(c6ccc(Cl)cc6)CC(C)(C)CC5)CC4)cc3Oc3cccc4[nH]ccc34)cc2[N+](=O)[O-])CC1` [EXAMPLE 190, 4-(4-{[2-(4-chlorophenyl)-4,4-dimethylcyclohex-1-en-1-yl]methyl}piperazin-1-yl)-2-(1H-indol-4-yloxy)-N-({4-[(4-methylpiperazin-1-yl)amino]-3-nitrophenyl}sulfonyl)benzamide], the “Binding selectivity ratio” value was 189.6.

Turning to `CC1(C)CCC(CN2CCN(c3ccc(C(=O)NS(=O)(=O)c4ccc(NC5CCN(CCO)CC5)c([N+](=O)[O-])c4)c(Oc4cccc5[nH]ccc45)c3)CC2)=C(c2ccc(Cl)cc2)C1` [EXAMPLE 191, 4-(4-{[2-(4-chlorophenyl)-4,4-dimethylcyclohex-1-en-1-yl]methyl}piperazin-1-yl)-N-[(4-{[1-(2-hydroxyethyl)piperidin-4-yl]amino}-3-nitrophenyl)sulfonyl]-2-(1H-indol-4-yloxy)benzamide], the “Binding selectivity ratio” value amounted to 125.2.

Consider `COCCN1CCC(Nc2ccc(S(=O)(=O)NC(=O)c3ccc(N4CCN(CC5=C(c6ccc(Cl)cc6)CC(C)(C)CC5)CC4)cc3Oc3cccc4[nH]ccc34)cc2[N+](=O)[O-])CC1` [EXAMPLE 194, 4-(4-{[2-(4-chlorophenyl)-4,4-dimethylcyclohex-1-en-1-yl]methyl}piperazin-1-yl)-2-(1H-indol-4-yloxy)-N-[(4-{[1-(2-methoxyethyl)piperidin-4-yl]amino}-3-nitrophenyl)sulfonyl]benzamide], for which the “Binding selectivity ratio” value is on record as 212.4.

For `CC1(C)CCC(CN2CCN(c3ccc(C(=O)NS(=O)(=O)c4ccc(NC5CCN(CCCO)CC5)c([N+](=O)[O-])c4)c(Oc4cccc5[nH]ccc45)c3)CC2)=C(c2ccc(Cl)cc2)C1` [EXAMPLE 195, 4-(4-{[2-(4-chlorophenyl)-4,4-dimethylcyclohex-1-en-1-yl]methyl}piperazin-1-yl)-N-[(4-{[1-(3-hydroxypropyl)piperidin-4-yl]amino}-3-nitrophenyl)sulfonyl]-2-(1H-indol-4-yloxy)benzamide], the “Binding selectivity ratio” value amounted to 170.2.

Regarding `CN(C)CCCc1cccc(-c2ccc(Cl)cc2)c1CN1CCN(c2ccc(C(=O)NS(=O)(=O)c3ccc(NCC4CCOCC4)c([N+](=O)[O-])c3)c(Oc3cccc4[nH]ccc34)c2)CC1` [EXAMPLE 196, 4-[4-({4′-chloro-3-[3-(dimethylamino)propyl]-1,1′-biphenyl-2-yl}methyl)piperazin-1-yl]-2-(1H-indol-4-yloxy)-N-({3-nitro-4-[(tetrahydro-2H-pyran-4-ylmethyl)amino]phenyl}sulfonyl)benzamide], the “Binding selectivity ratio” value is given as more than 20552.4.

As to `CC1(C)CCC(CN2CCN(c3ccc(C(=O)NS(=O)(=O)c4ccc(NC5CCN(CCCO)CC5)c([N+](=O)[O-])c4)c(Oc4ccc5[nH]ccc5c4)c3)CC2)=C(c2ccc(Cl)cc2)C1` [EXAMPLE 197, 4-(4-{[2-(4-chlorophenyl)-4,4-dimethylcyclohex-1-en-1-yl]methyl}piperazin-1-yl)-N-[(4-{[1-(3-hydroxypropyl)piperidin-4-yl]amino}-3-nitrophenyl)sulfonyl]-2-(1H-indol-5-yloxy)benzamide], the “Binding selectivity ratio” value is recorded as 193.

As for `O=C(NS(=O)(=O)c1ccc(NCC2CCOCC2)c([N+](=O)[O-])c1)c1ccc(N2CCN(Cc3cc(N4CCOCC4)ccc3-c3ccc(Cl)cc3)CC2)cc1Oc1cccc2[nH]ccc12` [EXAMPLE 198, 4-{4-[(4′-chloro-4-morpholin-4-yl-1,1′-biphenyl-2-yl)methyl]piperazin-1-yl}-2-(1H-indol-4-yloxy)-N-({3-nitro-4-[(tetrahydro-2H-pyran-4-ylmethyl)amino]phenyl}sulfonyl)benzamide], the “Binding selectivity ratio” value is listed as more than 166.4.

In the case of `CN(C)CCOc1cccc(-c2ccc(Cl)cc2)c1CN1CCN(c2ccc(C(=O)NS(=O)(=O)c3ccc(NC4CCN(C5CCOCC5)CC4)c([N+](=O)[O-])c3)c(Oc3cccc4[nH]ccc34)c2)CC1` [EXAMPLE 199, 4-[4-({4′-chloro-3-[2-(dimethylamino)ethoxy]-1,1′-biphenyl-2-yl}methyl)piperazin-1-yl]-2-(1H-indol-4-yloxy)-N-({3-nitro-4-[(1-tetrahydro-2H-pyran-4-ylpiperidin-4-yl)amino]phenyl}sulfonyl)benzamide], the “Binding selectivity ratio” value is reported as 369.8.
